Paper PMC11593225, “Polyphenolic Compounds Activate SERCA1a and Attenuate Methylglyoxal- and Palmitate-Induced Impairment in Pancreatic INS-1E Beta Cells” (Cells, 2024)
Entries after “also recorded” stand apart in the source; their conditions may differ. Read-outs that look alike come from different tables or passages of the source. Blank lines part the entries; values can stand above or below the molecule they belong to.

What was measured:
SERCA2 isoform = tested on: SERCA2 isoform; design: method as in Kang et al. [43] and Nguyen et al. [44]; conditions: ref Kang et al. [43] and Nguyen et al. [44]; cited from earlier work
SERCA1a = target: T1, SERCA1a (Oryctolagus cuniculus, UniProt P04191); experiment: SERCA1a ATPase activity, NADH-coupled enzyme assay in sarcoplasmic reticulum vesicles; assay type: biochemical, rabbit; conditions: for Effect on SERCA1a activity: 2 min; for Effect on SERCA1a activity in the presence of PAL: 0.65 mM PAL; for Effect on SERCA1a activity in the presence of MGX: 3 mM MGX; for Concentration from which the SERCA1a activating effect starts: concentration-dependent activation; for IC50: read-out: IC50, reduction in SERCA1a activity; for PAL SERCA1a Activity: in the presence of PAL;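 for all read-outs here: rabbit fast-twitch skeletal muscle SR vesicles with Ca2+ ionophore A23187, ATP hydrolysis rate followed as NADH absorbance loss at 340 nm, 37 °C, started by 10 µM CaCl2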
T1 construct: Sarcoplasmic reticulum (SR) vesicles were isolated from the fast-twitch skeletal muscle; from tissue; host or cells: rabbit fast-twitch skeletal muscle, sarcoplasmic reticulum vesicles
T1 sequence (P04191 1-994 isoform P04191-2): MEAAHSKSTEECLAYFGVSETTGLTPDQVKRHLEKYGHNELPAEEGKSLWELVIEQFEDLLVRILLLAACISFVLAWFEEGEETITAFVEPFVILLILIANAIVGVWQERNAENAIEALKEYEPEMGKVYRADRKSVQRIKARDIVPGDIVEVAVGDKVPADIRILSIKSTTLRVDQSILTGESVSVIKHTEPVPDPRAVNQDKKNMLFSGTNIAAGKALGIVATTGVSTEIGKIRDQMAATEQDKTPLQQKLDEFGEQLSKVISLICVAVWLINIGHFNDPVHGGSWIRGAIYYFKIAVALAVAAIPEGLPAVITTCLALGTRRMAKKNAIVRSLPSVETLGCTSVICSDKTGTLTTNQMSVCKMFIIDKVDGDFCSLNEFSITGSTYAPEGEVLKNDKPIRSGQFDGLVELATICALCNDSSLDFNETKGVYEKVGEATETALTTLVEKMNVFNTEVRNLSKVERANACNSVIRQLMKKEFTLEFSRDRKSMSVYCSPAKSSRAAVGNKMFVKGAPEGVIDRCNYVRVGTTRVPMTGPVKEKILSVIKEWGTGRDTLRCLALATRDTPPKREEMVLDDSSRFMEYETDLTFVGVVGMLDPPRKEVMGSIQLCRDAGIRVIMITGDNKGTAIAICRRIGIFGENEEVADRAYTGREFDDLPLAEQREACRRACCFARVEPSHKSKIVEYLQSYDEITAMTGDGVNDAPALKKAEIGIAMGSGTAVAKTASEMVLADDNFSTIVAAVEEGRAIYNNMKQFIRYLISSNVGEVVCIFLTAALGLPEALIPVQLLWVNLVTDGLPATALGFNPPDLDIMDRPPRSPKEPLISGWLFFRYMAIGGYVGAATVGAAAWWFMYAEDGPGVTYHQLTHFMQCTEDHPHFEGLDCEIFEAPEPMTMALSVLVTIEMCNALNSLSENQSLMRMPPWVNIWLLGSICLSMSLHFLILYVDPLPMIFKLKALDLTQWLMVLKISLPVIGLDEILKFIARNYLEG

INS-1E beta cells [1] = experiment: MTT viability assay in INS-1E beta cells; assay type: cell-based; conditions: for IC50: MTT, read-out: IC50, INS-1E cell viability; for PAL INS-1E Viability: in the presence of PAL; for Effect on INS-1E viability in the presence of MGX: 2.5 mM MGX; for Concentrations protecting against MGX-induced beta cell viability decrease: MGX 2.5 mM
Description: The INS-1E insulinoma pancreatic beta cell line (kindly provided by Prof. Claes Wollheim, University of Geneva) was cultured in RPMI 1640 (11 mM glucose, Sigma, St. Louis, MO, USA). The RPMI 1640 was supplemented with 100 U/mL penicillin, 100 μg/mL streptomycin, 2 mM L-glutamine, 1 mM Na pyruvate, 55 μM 2-mercaptoethanol, 10 mM HEPES, 1% nonessential amino acids, and 10% fetal bovine serum (pH 7.0–7.4). Cells were cultivated in a humidified incubator containing 5% CO2 at 37 °C. All experiments were conducted using cells from passages 40 to 70. […] Subsequent measurements were then performed using a cytotoxicity MTT assay and an insulin release assay.
The MTT (Sigma, St. Louis, MO, USA) reduction assay was used as an indicator of cell damage and was conducted following a standard protocol. INS-1E cells (5 × 10^4 cells per well) were seeded into 96-microwell plates. The cells were preincubated for different periods with or without various concentrations of individual compounds for 24 h (5% CO2 at 37 °C). MTT was introduced to achieve a final concentration of 0.5 mg/mL in an RPMI 1640 medium. Following a 4 h incubation, the MTT medium was removed. The addition of DMSO (100 µL) was added and left to stand for 15 min to solubilize the formazan formed. The absorbance was recorded at 570 nm using a microplate reader (Infinite M200, Tecan, Switzerland).

INS-1E beta cells [2] = experiment: Insulin release from INS-1E beta cells (RIA); assay type: cell-based; conditions: for Insulin release from non-stimulated cells / Insulin release from Glu-stimulated cells: 50 µM, except CUR and THCU 10 µM, 24 h; for Insulin release from non-stimulated cells / Insulin Secretion Non-Stimulated: 3 mM glucose; for Insulin release from Glu-stimulated cells / Insulin Secretion Stimulated: 16.7 mM glucose
Description: The INS-1E insulinoma pancreatic beta cell line (kindly provided by Prof. Claes Wollheim, University of Geneva) was cultured in RPMI 1640 (11 mM glucose, Sigma, St. Louis, MO, USA). The RPMI 1640 was supplemented with 100 U/mL penicillin, 100 μg/mL streptomycin, 2 mM L-glutamine, 1 mM Na pyruvate, 55 μM 2-mercaptoethanol, 10 mM HEPES, 1% nonessential amino acids, and 10% fetal bovine serum (pH 7.0–7.4). Cells were cultivated in a humidified incubator containing 5% CO2 at 37 °C. All experiments were conducted using cells from passages 40 to 70. The cells were pre-treated with various concentrations of individual compounds (5–200 μM) for 24 h with or without MGX (2.5 mM) and PAL (0.4 mM). Subsequent measurements were then performed using a cytotoxicity MTT assay and an insulin release assay.
Insulin release in response to glucose was measured in INS-1E beta cells ([…]). Briefly, after 24 h preincubation with individual compounds, beta cells were washed with a glucose-free KRBH buffer. Subsequently, cells were incubated at 37 °C for 30 min in a glucose-free KRBH buffer, followed by another 30 min incubation at 37 °C in a KRBH buffer containing either 3 mM glucose (non-stimulating concentration) or 16.7 mM glucose (insulin-stimulating concentration). The supernatants were then collected and analyzed using an RIA kit (Mercodia, Uppsala, Sweden) for insulin release, with rat insulin as the standard.

[3] = SR vesicles, no stressor, read-out: EC50, SERCA1a activation

Molecule: Cc1ccc2cccc(NC(=O)c3ccc(OC(C)C)cc3)c2n1 [CDN1163]
Concentrations required for efficient SERCA activation (SERCA2 isoform): 1 to 10 µM

Molecule: O=c1oc2c(O)c(O)cc3c(=O)oc4c(O)c(O)cc1c4c23 [EA, Ellagic acid]
Effect on INS-1E viability in the presence of PAL (INS-1E beta cells [1]; 0.4 mM PAL, 5–200 μM): protection
Increase in SERCA1a activity (SERCA1a; 50 μM): approximately 150%
Effect on SERCA1a activity in the presence of PAL (SERCA1a; 50 µM): alleviated PAL-induced injury almost to control values
Effect on SERCA1a activity in the presence of PAL (SERCA1a; 5–200 μM): most profound protective effect
Effect on SERCA1a activity in the presence of MGX (SERCA1a; 5–200 μM): potent concentration-dependent protective effect
Effect on SERCA1a activity (SERCA1a; 5–200 μM): increase SERCA1a activity
EC50 (SERCA1a; [3]): 33.2 µM
Concentration from which the SERCA1a activating effect starts (SERCA1a): ≥ 30 µM
Insulin release from non-stimulated cells (INS-1E beta cells [2]): significant increase in insulin release
Insulin release from Glu-stimulated cells (INS-1E beta cells [2]): significant increase in insulin release

Molecule: CC(=O)C=O [MGX, methylglyoxal]
IC50 (INS-1E beta cells [1]): 2540 µM
IC50 (SERCA1a; SR vesicles): 2980 µM

Molecule: Oc1cc(O)cc(/C=C/c2ccc(O)cc2O)c1 [ORES, Oxyresveratrol]
PAL INS-1E Viability (INS-1E beta cells [1]): -
Effect on SERCA1a activity in the presence of MGX (SERCA1a; 5–200 μM): further decreased SERCA1a activity
PAL SERCA1a Activity (SERCA1a): -
Insulin Secretion Non-Stimulated (INS-1E beta cells [2]): -

Molecule: CCCCC/C=C/C(=O)CCc1ccc(O)c(OC)c1 [SHO, [6]-Shogaol]
Effect on SERCA1a activity in the presence of PAL (SERCA1a; 5–200 μM): additional decrease in SERCA1a activity; also recorded: no preventive effect
Effect on SERCA1a activity in the presence of MGX (SERCA1a; 5–200 μM): further decreased SERCA1a activity; also recorded: no preventive effect
Effect on SERCA1a activity (SERCA1a; 5–200 μM): does not
Insulin Secretion Non-Stimulated (INS-1E beta cells [2]): -
Insulin Secretion Stimulated (INS-1E beta cells [2]): -

Molecule: COc1cc(CCC(=O)CC(=O)CCc2ccc(O)c(OC)c2)ccc1O [THCU, Tetrahydrocurcumin]
Effect on INS-1E cell viability (INS-1E beta cells [1]; 20 µM, 24 h): stimulating effect on cell viability
Effect on INS-1E viability in the presence of MGX (INS-1E beta cells [1]; 20 µM): protective effect
Concentrations protecting against MGX-induced beta cell viability decrease (INS-1E beta cells [1]): < 20 µM
MGX SERCA1a Activity (SERCA1a; in the presence of MGX): -
PAL SERCA1a Activity (SERCA1a): -
Insulin release from non-stimulated cells (INS-1E beta cells [2]): significant increase in insulin release
Insulin release from Glu-stimulated cells (INS-1E beta cells [2]): significant increase in insulin release

Molecule: Curcumin
Effect on INS-1E viability in the presence of PAL (INS-1E beta cells [1]; 0.4 mM PAL, 5–200 μM): protection
Effect on INS-1E viability in the presence of MGX (INS-1E beta cells [1]; 5 and 10 µM): protective effect
Concentrations protecting against MGX-induced beta cell viability decrease (INS-1E beta cells [1]): < 20 µM
Effect on SERCA1a activity in the presence of PAL (SERCA1a; 5–200 μM): additional decrease in SERCA1a activity
Effect on SERCA1a activity in the presence of MGX (SERCA1a; 10 µM): prevented MGX-mediated decline
Effect on SERCA1a activity in the presence of MGX (SERCA1a; 20–50 µM): further decreased SERCA1a activity
Insulin release from non-stimulated cells (INS-1E beta cells [2]): significant increase in insulin release
Insulin release from Glu-stimulated cells (INS-1E beta cells [2]): significant increase in insulin release

Now from value to molecule, other results behind:

Effect on SERCA1a activity (SERCA1a; 5–200 μM): increase SERCA1a activity
Molecule: Oc1cc(O)c2cc(O)c(-c3ccc(O)c(O)c3)[o+]c2c1 [CYA, Cyanidin chloride]

Effect on SERCA1a activity in the presence of PAL (SERCA1a; 5–200 μM): protective effect
Effect on SERCA1a activity (SERCA1a; 5–200 μM): increase SERCA1a activity
EC50 (SERCA1a; [3]): 36.9 µM
Concentration from which the SERCA1a activating effect starts (SERCA1a): ≥ 30 µM
Molecule: CCCCC[C@H](O)CC(=O)CCc1ccc(O)c(OC)c1 [GIN, [6]-Gingerol]
Effect on SERCA1a activity in the presence of PAL (SERCA1a; 50 and 100 μM): protected against the decrease in SERCA1 activity
Effect on SERCA1a activity in the presence of MGX (SERCA1a; 5–200 μM): potent concentration-dependent protective effect
Effect on SERCA1a activity in the presence of MGX (SERCA1a; 100–200 μM): protected against the decrease in SERCA1 activity
Insulin release from non-stimulated cells (INS-1E beta cells [2]): did not induce an increase
Insulin release from Glu-stimulated cells (INS-1E beta cells [2]): slight increase
Insulin Secretion Non-Stimulated (INS-1E beta cells [2]): -

SERCA1a Activity (SERCA1a; control conditions): -
PAL SERCA1a Activity (SERCA1a): -
Molecule: O=c1c(O)c(-c2cc(O)c(O)c(O)c2)oc2cc(O)cc(O)c12 [MYR, Myricetin]
Effect on INS-1E viability in the presence of PAL (INS-1E beta cells [1]; 0.4 mM PAL, 5–200 μM): highest degree of protection
INS-1E viability restored, % of the control cell value (INS-1E beta cells [1]; 0.4 mM PAL, 10 and 50 µM): approximately 80%

IC50 (SERCA1a; SR vesicles): 650 µM
Molecule: CCCCCCCCCCCCCCCC(=O)O [PAL, palmitate]
IC50 (INS-1E beta cells [1]; INS-1E): 410 µM

EC50 (SERCA1a; in the presence of MGX (3 mM), read-out: EC50, protection of SERCA1 activity against MGX): 112 µM
Molecule: Oc1ccc(/C=C/c2cc(O)cc(O)c2)cc1 [RES, Resveratrol]
Effect on INS-1E viability in the presence of PAL (INS-1E beta cells [1]; 0.4 mM PAL, 5–200 μM): did not prevent the decrease
Effect on INS-1E viability in the presence of MGX (INS-1E beta cells [1]; 5–200 μM, 24 h): no effect; also recorded: did not prevent the decrease
MGX INS-1E Viability (INS-1E beta cells [1]; in the presence of MGX): -
PAL INS-1E Viability (INS-1E beta cells [1]): -
Effect on SERCA1a activity in the presence of MGX (SERCA1a; 5–200 μM): potent concentration-dependent protective effect
Insulin Secretion Non-Stimulated (INS-1E beta cells [2]): -
Insulin Secretion Stimulated (INS-1E beta cells [2]): -
